Data from patent US12180208B1, “Pyrazolo[1,5-c]pyrido[3,4-e]pyrimidines as CK2 inhibitors” (KING FAISAL UNIVERSITY, priority 2024, dated 2024).

Key:
MIAPaCa-2 (pancreas) = experiment: In vitro cytotoxic activity (MTT) assay, MIAPaCa-2; format: cell-based; conditions: Homo sapiens, MIA PaCa-2, 96 hours exposure, read-out: Cytotoxicity activity IC50 (50% inhibition of cell proliferation)
Description: (§1) Compounds 1-16 were screened for their in vitro cytotoxic activity utilizing a 3-(4,5-dimethyl-thiazol-2-yl)-2,5-diphenyltetrazolium bromide (MTT) assay against selected cancer human cell lines consisting of PC3 (prostate), HCT116 (colon), A375 (melanoma), H1299 (lung), MIAPaCa-2 (pancreas), HL60 (leukemia), MCF7 (breast), MDA-MB-231 (breast) (T. Mosmann, J. Immunol. Meth., 1983, 65, 55-63). The cells were cultured at 37° C. in RMPI1640 medium supplemented with 10% fetal bovine serum, 50 IU/mL penicillin, and 50 μg/mL streptomycin in a 5% CO2 incubator. All cells were sub-cultured 3 times/week by trypsinisation. Viable cells were seeded and allowed to adhere for 12 hours before a test drug was added in 96-well plates at an initial density of 1.0×10^5 cells/mL. Tumor cell lines were separately exposed to various concentrations of the tested compounds followed by incubation at a temperature of 37° C. during 96 hours inside a medium of fresh RMPI 1640. Cells were subsequently incubated at 37° C. using MTT at 0.5 mg/mL during 4 hours. After removal of supernatant, formazan crystals were dissolved in isopropanol and the optical density was measured at 570 nm. CX-4945 was used as a positive control.

HCT116 (colon) = experiment: In vitro cytotoxic activity (MTT) assay, HCT116; format: cell-based; conditions: Homo sapiens, HCT-116, 96 hours exposure, read-out: Cytotoxicity activity IC50 (50% inhibition of cell proliferation)
Description: as §1

[1] = target: T1, recombinant human CK2 (holoenzyme) (Homo sapiens, UniProt P68400); experiment: CK2 Kinase Assay (33P-ATP, filter plate); format: biochemical; conditions: final ATP concentration 15 μM, 10 min at 30° C.; read-out: protein kinase CK2 IC50
T1 construct: purchased Millipore
T1 sequence (P68400 whole entry): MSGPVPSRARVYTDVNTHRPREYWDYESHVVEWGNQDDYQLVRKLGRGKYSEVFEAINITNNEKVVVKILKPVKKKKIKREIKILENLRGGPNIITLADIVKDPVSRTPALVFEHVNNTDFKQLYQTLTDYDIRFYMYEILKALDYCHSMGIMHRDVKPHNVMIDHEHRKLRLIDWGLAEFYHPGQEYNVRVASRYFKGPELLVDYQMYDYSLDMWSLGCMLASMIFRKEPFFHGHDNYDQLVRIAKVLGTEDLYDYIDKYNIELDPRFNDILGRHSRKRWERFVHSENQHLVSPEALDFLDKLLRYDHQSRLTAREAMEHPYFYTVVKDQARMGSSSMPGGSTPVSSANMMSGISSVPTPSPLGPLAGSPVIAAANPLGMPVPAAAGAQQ
T1 sequence (P67870 whole entry partner): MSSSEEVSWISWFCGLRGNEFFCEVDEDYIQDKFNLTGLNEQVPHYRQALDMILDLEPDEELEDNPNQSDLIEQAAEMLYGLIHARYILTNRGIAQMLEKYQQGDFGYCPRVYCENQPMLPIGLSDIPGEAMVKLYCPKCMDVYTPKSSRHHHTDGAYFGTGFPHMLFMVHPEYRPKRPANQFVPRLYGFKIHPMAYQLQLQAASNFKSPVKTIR
Description: CK2 Kinase Assay was conducted using the protocol as described in Pierre F. et al; J. Med. Chem. 2011, 54, 635-654. The tested compounds in aqueous solution were added at a volume of 10 μL to a reaction mixture comprising 10 μL of assay dilution buffer (ADB; 20 mM MOPS, pH 7.2, 25 mM β-glycerol phosphate, 5 mM EGTA, 1 mM sodium orthovanadate, and 1 mM dithiothreitol), 10 μL of substrate peptide (RRRDDDSDDD, dissolved in ADB at a concentration of 1 mM), 10 μL of recombinant human CK2 (RRββ-holoenzyme, 25 ng dissolved in ADB; Millipore). Reactions were initiated by the addition of 10 μL of ATP solution (90% 75 mMMgCl2, 75 μM ATP (final ATP concentration: 15 μM) dissolved in ADB; 10% [γ-33P] ATP (stock 1 mCi/100 μL; 3000 Ci/mmol (Perkin-Elmer) and maintained for 10 min at 30° C. The reactions were quenched with 100 μL of 0.75% phosphoric acid and then transferred to and filtered through a phosphor cellulose filter plate (Millipore). After washing each well five times with 0.75% phosphoric acid, the plate was dried under vacuum for 5 min and, following the addition of 15 μL of scintillation fluid to each well, the residual radioactivity was measured using a Wallac […] counter. The IC50 values were derived from eight concentrations of test inhibitors.

HL60 (leukemia) = experiment: In vitro cytotoxic activity (MTT) assay, HL60; format: cell-based; conditions: Homo sapiens, HL-60, 96 hours exposure, read-out: Cytotoxicity activity IC50 (50% inhibition of cell proliferation)
Description: as §1

H1299 (lung) = experiment: In vitro cytotoxic activity (MTT) assay, H1299; format: cell-based; conditions: Homo sapiens, NCI-H1299, 96 hours exposure, read-out: Cytotoxicity activity IC50 (50% inhibition of cell proliferation)
Description: as §1

PC3 (prostate) = experiment: In vitro cytotoxic activity (MTT) assay, PC3; format: cell-based; conditions: Homo sapiens, 96 hours exposure, read-out: Cytotoxicity activity IC50 (50% inhibition of cell proliferation)
Description: as §1

MDA-MB-231 (breast) = experiment: In vitro cytotoxic activity (MTT) assay, MDA-MB-231; format: cell-based; conditions: Homo sapiens, 96 hours exposure, read-out: Cytotoxicity activity IC50 (50% inhibition of cell proliferation)
Description: as §1

MCF7 (breast) = experiment: In vitro cytotoxic activity (MTT) assay, MCF7; format: cell-based; conditions: Homo sapiens, 96 hours exposure, read-out: Cytotoxicity activity IC50 (50% inhibition of cell proliferation)
Description: as §1

A375 (melanoma) = experiment: In vitro cytotoxic activity (MTT) assay, A375; format: cell-based; conditions: Homo sapiens, A-375, 96 hours exposure, read-out: Cytotoxicity activity IC50 (50% inhibition of cell proliferation)
Description: as §1

- IC50 [1]: 0.055 µM
SMILES: O=C(O)c1cc2c3cnccc3nc(Nc3cccc(Cl)c3)n2n1 [Compound 1, 6-((3-chlorophenyl)amino)pyrazolo[1,5-c]pyrido[3,4-e]pyrimidine-9-carboxylic Acid]
- IC50 (MIAPaCa-2 (pancreas)): 1.7 µM
- IC50 (HCT116 (colon)): 3.1 µM
- IC50 (HL60 (leukemia)): 5.1 µM
- IC50 (H1299 (lung)): 2.5 µM
- IC50 (PC3 (prostate)): 2.3 µM
- IC50 (MDA-MB-231 (breast)): 4.9 µM
- IC50 (MCF7 (breast)): 5.6 µM
- IC50 (A375 (melanoma)): 4.2 µM
